Results as given in patent US8143421B2, “Broadspectrum substituted benzimidazole sulfonamide HIV protease inhibitors” (priority 2002, dated 2012).

Tests used:
mutant D = assay: Antiviral spectrum, fold resistance towards mutant D; assay type: cell-based; details: FR=IC50(mutant strain)/IC50(HIV-1 strain LAI)
Procedure: (§1) Because of the increasing emergence of drug resistant HIV strains, the present compounds were tested for their potency against clinically isolated HIV strains harboring several mutations. These mutations are associated with resistance to protease inhibitors and result in viruses that show various degrees of phenotypic cross-resistance to the currently commercially available drugs such as for instance saquinavir, ritonavir, nelfinavir, indinavir and amprenavir. The viral strains R13025, R13027, R13028, R13029, R13034, R13080, T13127 and R13363 contained mutations as indicated below in Table 3.

mutant F = assay: Antiviral spectrum, fold resistance towards mutant F; assay type: cell-based; details: FR=IC50(mutant strain)/IC50(HIV-1 strain LAI)
Procedure: as §1

mock-infected MT4 cells = assay: Toxicity on mock-infected MT4 cells (CC50)
Procedure: (§2) HIV- or mock-infected MT4 cells were incubated for five days in the presence of various concentrations of the inhibitor. […] Cell viability is measured by measuring the concentration of MTT, a yellow, water soluble tetrazolium dye that is converted to a purple, water insoluble formazan in the mitochondria of living cells only. Upon solubilization of the resulting formazan crystals with isopropanol, the absorbance of the solution is monitored at 540 nm. The values correlate directly to the number of living cells remaining in the culture at the completion of the five day incubation. The inhibitory activity of the compound was monitored on the virus-infected cells and was expressed as IC50 and IC90. These values represent the amount of the compound required to protect 50% and 90%, respectively, of the cells from the cytopathogenic effect of the virus. […] The selectivity index (SI) (ratio CC50/IC50) is an indication of the selectivity of the anti-HIV activity of the inhibitor. Wherever results are reported as e.g. pIC50 or pCC50 values, the result is expressed as the negative logarithm of the result expressed as IC50 or CC50 respectively.
(§3) As a measure of the broad spectrum activity of the present compounds, the fold resistance (FR), defined as FR=IC50(mutant strain)/IC50(HIV-1 strain LAI), was determined.

HIV-1 strain LAI = assay: Cellular anti-HIV assay, MT4 cells, MTT readout, wild type HIV-1 strain LAI; assay type: cell-based; details: for pIC50 (LAI): MT4 cells, five days, HIV-1 strain LAI; for WT (pIC50 against wild type HIV-LAI strain): Table 4
Procedure: The compounds of the present invention were examined for anti-viral activity in a cellular assay. […] The cellular assay was performed according to the following procedure.

mutant B = assay: Antiviral spectrum, fold resistance towards mutant B; assay type: cell-based; details: FR=IC50(mutant strain)/IC50(HIV-1 strain LAI)
Procedure: as §1

mutant C = assay: Antiviral spectrum, fold resistance towards mutant C; assay type: cell-based; details: FR=IC50(mutant strain)/IC50(HIV-1 strain LAI)
Procedure: as §1

mutant E = assay type: cell-based; details: FR=IC50(mutant strain)/IC50(HIV-1 strain LAI)
Procedure: as §2
(§4) Because of the increasing emergence of drug resistant HIV strains, the present compounds were tested for their potency against clinically isolated HIV strains harboring several mutations. […] The viral strains R13025, R13027, R13028, R13029, R13034, R13080, T13127 and R13363 contained mutations as indicated below in Table 3.
as §3

mutant A = assay type: cell-based; details: FR=IC50(mutant strain)/IC50(HIV-1 strain LAI)
Procedure: as §2, §4, §3

mutant G = assay: Antiviral spectrum, fold resistance towards mutant G; assay type: cell-based; details: FR=IC50(mutant strain)/IC50(HIV-1 strain LAI)
Procedure: as §1

mutant H = assay: Antiviral spectrum, fold resistance towards mutant H; assay type: cell-based; details: FR=IC50(mutant strain)/IC50(HIV-1 strain LAI)
Procedure: as §1

[1] = pCC50 value as determined with mock transfected cells

Row | Compound | FR towards mutant D (mutant D) | FR towards mutant F (mutant F) | Tox (pCC50) (mock-infected MT4 cells; [1]) | pIC50 (LAI) (HIV-1 strain LAI; Table 1) | WT (pIC50 against wild type HIV-LAI strain) (HIV-1 strain LAI) | FR towards mutant B (mutant B) | FR towards mutant C (mutant C) | FR towards mutant E (mutant E) | FR value towards mutant A (mutant A) | FR towards mutant G (mutant G) | Tox (pCC50) (mock-infected MT4 cells) | pIC50 (LAI) (HIV-1 strain LAI; Table 2) | FR towards mutant H (mutant H)
1 | CC(C)CN(C[C@@H](O)[C@H](Cc1ccccc1)NC(=O)OCc1cccnc1)S(=O)(=O)c1ccc2nc(N)[nH]c2c1 [Compound 54] | 0.46 | 1.7 | <4 | 5.8 | 5.8 | 0.40 | 0.42 | 0.42 | 1.6 |  |  |  | 
2 | COC(=O)Nc1nc2ccc(S(=O)(=O)N(CC(C)C)C[C@@H](O)[C@H](Cc3ccccc3)NC(=O)COc3c(C)cc(N(C)C)cc3C)cc2[nH]1 [Compound 19] | 3.6 | 83 | <4 | 7.5 | 7.5 | 1.2 | 1.4 | 3.5 | 5.6 |  |  |  | 
3 | CC(C)CN(CC(O)C(Cc1ccccc1)NC(=O)OC1COC2OCCC12)S(=O)(=O)c1ccc2nc(NC(=O)OCCN(C)C)[nH]c2c1 (stereo not drawn) [Compound 48] | 0.35 | 0.35 | <4 | 6.4 | 6.4 | 1.9 | 0.38 | 0.32 | 0.37 | 0.85 |  |  | 
4 | Cc1cccc(C)c1OCC(=O)N[C@@H](Cc1ccccc1)[C@H](O)CN(CC(C)C)S(=O)(=O)c1ccc2nc(N)n(C)c2c1 [Compound 13] | 3.4 |  |  | 7.7 | 7.7 | 3.4 | 2.5 | 4.5 |  |  | <4 |  | 
5 | COC(=O)Nc1nc2ccc(S(=O)(=O)N(CC(C)C)C[C@@H](O)[C@H](Cc3ccccc3)NC(=O)c3ccc([N+](=O)[O-])cc3C)cc2[nH]1 [Compound 11] | 3.5 | 7.1 | <4 | 8.0 | 8.0 | 1.0 | 1.5 | 1.6 | 5.4 | 245 |  |  | 
6 | CC(C)CN(C[C@@H](O)[C@H](Cc1ccccc1)NC(=O)O[C@H]1CCOC1)S(=O)(=O)c1ccc2ncn(C)c2c1 [Compound 16] | 5.9 | 288 |  | 7.7 | 7.7 |  | 2.6 | 5.4 |  |  | <4.49 |  | 
7 | COC(=O)Nc1nc2ccc(S(=O)(=O)N(CC(C)C)C[C@@H](O)[C@H](Cc3ccccc3)NC(=O)COc3c(C)cccc3C)cc2[nH]1 [Compound 6] | 2.1 | 10 |  | 8.6 | 8.6 |  | 2.7 | 1.6 | 2.9 | 60 | <4 |  | 
8 | [(1S,2R)-2-hydroxy-3-[(2-methylpropyl)[[1-(2-methyl-propyl)benzimidazol-6-yl]sulfonyl]amino]-1-(phenylmethyl)propyl]carbamic acid, [(3R,3aS,6aR)-hexahydrofuro[2,3-b]furan-3-yl]ester [Compound 7] | 1.2 | 72 | <4 | 8.6 | 8.6 |  | 0.45 | 2.1 |  | 174 |  |  | 
9 | CC(C)CN(C[C@@H](O)[C@H](Cc1ccccc1)NC(=O)O[C@H]1CCOC1)S(=O)(=O)c1ccc2ncn(CCc3ccccc3)c2c1 [Compound 15] | 5.4 | 269 | 4.2 | 7.7 | 7.7 | 6.3 | 2.4 | 6.2 |  | 407 |  |  | 
10 | CC(C)CN(C[C@@H](O)[C@H](Cc1ccccc1)NC(=O)OCc1cncs1)S(=O)(=O)c1ccc2nc[nH]c2c1 [Compound 23] | 2.5 | 23 |  | 7.3 | 7.3 | 2.3 | 3.5 | 4.8 | 7.1 |  | <4 |  | 
11 | CC(C)CN(C[C@@H](O)[C@H](Cc1ccccc1)NC(=O)O[C@H]1CCOC1)S(=O)(=O)c1ccc2nc(NC(=O)NCCN(C)C)[nH]c2c1 [Compound 52] | 3.0 | 4.3 |  | 6.1 | 6.1 | 2.9 | 3.5 | 3.4 | 4.2 |  | <5 |  | 
12 | [(1S,2R)-3-[[(1-methylbenzimidazol-5-yl)sulfonyl](2-methyl-propyl)amino]-2-hydroxy-1-(phenylmethyl)propyl]carbamic acid, [(3R,3aS,6aR)-hexahydrofuro[2,3-b]furan-3-yl]ester [Compound 64] |  |  | <4 |  | 7.6 |  |  | 1.5 | 4.3 |  |  | 7.6 | 13
13 | CC(C)CN(CC(O)C(Cc1ccccc1)NC(=O)OC1COC2OCCC12)S(=O)(=O)c1ccc2nc(N)n(C)c2c1 (stereo not drawn) [Compound 41] |  |  |  | 6.6 | 6.6 |  |  | 1.4 | 1.4 |  | <4 |  | 1.5
14 | CC(C)CN(C[C@@H](O)[C@H](Cc1ccccc1)NC(=O)OCc1cncs1)S(=O)(=O)c1ccc2ncn(CCc3ccccc3)c2c1 [Compound 34] |  |  | <4 | 7.0 | 7.0 |  |  | 17 | 32 |  |  |  | 46
15 | COC(=O)Nc1nc2ccc(S(=O)(=O)N(CC(C)C)C[C@@H](O)[C@H](Cc3ccccc3)NC(=O)COc3c(C)cc(CN)cc3C)cc2[nH]1 [Compound 26] |  |  | 4.86 | 7.0 | 7.0 |  |  | 6.8 | 6.3 |  |  |  | 47
16 | CC(=O)Nc1nc2ccc(S(=O)(=O)N(CC(C)C)C[C@@H](O)[C@H](Cc3ccccc3)NC(=O)O[C@H]3CCOC3)cc2[nH]1 [Compound 27] |  |  |  | 7.3 | 7.3 |  |  | 1.1 | 2.7 |  | <4 |  | 2.3
17 | COc1ccc(C(=O)Nc2nc3ccc(S(=O)(=O)N(CC(C)C)C[C@@H](O)[C@H](Cc4ccccc4)NC(=O)COc4c(C)cccc4C)cc3[nH]2)cc1 [Compound 37] | 1.9 | 7.9 |  | 6.9 | 6.9 | 0.35 | 0.95 | 1.3 | 1.0 | 21 |  |  | 
18 | CC(C)CN(C[C@@H](O)[C@H](Cc1ccccc1)NC(=O)OCc1cncs1)S(=O)(=O)c1ccc2ncn(CC(C)C)c2c1 [Compound 32] |  |  |  | 7.4 | 7.4 |  |  | 13 | 18 |  | 4.2 |  | 41
